The text below walks through data of patent US20230220443A1, “CHARACTERIZATION OF S-ADENOSYL-L-METHIONINE-CONSUMING ENZYMES WITH 1-STEP EZ-MTASE: A UNIVERSAL COUPLED-ASSAY” (ALBERT EINSTEIN COLLEGE OF MEDICINE, priority 2017, published 2023).

SMILES strings stand for the structures. Entries after “also recorded” stand apart in the source; their conditions may differ.

This assay deals with T1, NcDIM-5 (Neurospora crassa, UniProt Q8X225).
T1 construct: GST; made in house
T1 sequence (Q8X225 1-331): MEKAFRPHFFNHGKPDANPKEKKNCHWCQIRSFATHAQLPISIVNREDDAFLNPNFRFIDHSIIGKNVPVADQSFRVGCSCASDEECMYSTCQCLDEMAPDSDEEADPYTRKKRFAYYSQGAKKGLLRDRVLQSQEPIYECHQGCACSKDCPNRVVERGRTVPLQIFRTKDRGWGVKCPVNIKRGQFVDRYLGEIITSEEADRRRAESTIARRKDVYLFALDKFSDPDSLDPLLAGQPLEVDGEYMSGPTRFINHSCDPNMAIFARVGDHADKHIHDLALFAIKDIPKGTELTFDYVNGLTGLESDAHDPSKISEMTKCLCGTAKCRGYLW
It counts as biochemical. On the procedure:
Kinetic behavior for peptide H3(1-53) against NcDIM-S(SAM sat.)—Experiments were conducted following matching CePRMT5 protocol above. Briefly, the 250-μL reaction mixtures from a same row contained 25 mM glycine buffer pH=9.50, 1 mM βME, 10% glycerol, 50 mM NaCl, 4 μM coupling deaminase TM0936, 7.6 nM NcDIM-5 and various peptide concentrations (0.51-12.68 μM; in the first well, peptide acceptor was omitted to account for background signal—natural decomposition of SAM). Reactions started upon addition of SAM (25.8 μM saturating final concentration) and absorbance was recorded. Initial rates were first corrected for background signal, then plotted against H3(1-53) concentrations. Fit to the Michaelis-Menten equation provided corresponding kinetic parameters.
Kinetic behavior for 8-aza-SAM against MTases (acceptor sat.)—Briefly, kinetic parameters were determined at 20° C. in a UV-Star 96-well flat bottom plate (Greiner Bio-One, #655801) by continuous monitoring of absorbance at 282 nm using a SpectraMax M5 instrument (Molecular Devices). As for SAM experiments, the measurements consisted of two experimental subsets: MTase reactions (both 8-aza-SAM and acceptor added) and MTase blanks (8-aza-SAM was added without acceptor to account for natural 8-aza-SAM decomposition). The 250-μL (60-μL) reaction mixtures from a same row contained 50 mM phosphate buffer pH=7.60 (7.80), 1 mM βME, 10% glycerol (5% glycerol, 100 μM MgCl2), 4 μM coupling deaminase TM0936, either 1.5 μM CePRMT5 or 402 nM TbPRMT7 (or 610 nM GsSDMT) and various 8-aza-SAM concentrations. […] Initial rates were first corrected for background signal, then plotted against 8-aza-SAM concentrations and fitted to the Michaelis-Menten equation to yield corresponding kinetic parameters.
where [MTase] and [8-aza-SAM] are the total concentration of methyltransferase and methyl donor, respectively; Km is the Michaelis constant, Kf is the substrate inhibition constant and kcat is the turnover for 8-aza-SAM substrate.

The mark [1] stands for this setting: pH=9.50, 25 μM SAM, 7.6 nM NcDIM-5.

In the case of `C[S+](CC[C@H](N)C(=O)O)C[C@H]1O[C@@H](n2nnc3c(N)ncnc32)[C@H](O)[C@@H]1O` (stereo partly drawn) [8-aza-SAM, S-8-aza-adenosyl-L-methionine], the “acceptance of cofactor analog as substrate” value is “unable to accept; also recorded: unable to process”. In addition, under setting [1], the Km entry is “NOT A” and the kcat entry is reported as “NOT A”.
